According to patent US20170233409A1, “TYPE IV SECRETION SYSTEM INHIBITORS” (priority 2016, published 2017):

Test system: type V secretion system-mediated release of the cytotoxin VacA
Type: cell-based, H. pylori

SMILES	type V secretion system-mediated release of VacA into cell culture supernatants
O=C(O)[C@@H]1CSc2c(C3CC3)c(Cc3cccc4ccccc34)cc(=O)n21 [Compound C10, (3R)-8-cyclopropyl-7-(naphthalen-1-ylmethyl)-5-oxo-3,5-dihydro-2H-thiazolo[3,2-a]pyridine-3-carboxylic acid]	did not impair
COc1ccc(Cc2cc(=O)n3c(c2C2CC2)SC[C@H]3C(=O)O)c2ccccc12 [KSK85, (3R)-7-[(4-methoxynaphthalen-1-yl)methyl]-8-cyclopropyl-5-oxo-2,3-dihydro-5H-[1,3]thiazolo[3,2-a]pyridine-3-carboxylic acid]	did not impair
